From US9795566B2, “Imidazole compound and liposome containing same” (FUJIFILM Corporation, priority 2014, dated 2017)

Test: Stability of the compounds and of the liposomes (statement in words)
Type: physicochemical
Details: compound itself

Structure (SMILES)	stability of the compound
CCCCCCCCCCCCCCCCN(CCCCCCCCCCCCCCCC)C(=O)COCCOCCOCCNC(=O)C(N)Cc1cnc[nH]1 (centres unmarked) [Example 3]	very stable
CCCCCCCCCCCCCCCCN(CCCCCCCCCCCCCCCC)CCOCCOC(=O)C(N)Cc1cnc[nH]1 (centres unmarked) [Example 1]	very stable
